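Step 1: Grow cells in 96-well plates. Step 2: Expose to compound for 48 hours at 5 concentrations. Step 3: Interpolate endpoints linearly; if unreached, use highest concentration. At the GI50, growth is halved. At the TGI there is no net growth.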

Assay in all cases: NCI tumour cell line growth inhibition, 48 h
The subject of test [1] is 786-0 renal.
Test [2] deals with DU-145 prostate.
The subject of test [3] is HCT-116 colon.
The test system of test [4] is HCT-15 colon.
The subject of test [5] is K-562 leukemia.
Test [6] relates to MDA-MB-231 breast.
Test [7] relates to NCI/ADR-RES ovarian.
Test [8] has as its system SK-MEL-5 melanoma.
The subject of test [9] is SNB-75 CNS.
Test [10] has as its system UACC-62 melanoma.

Consider `CC(=O)O[C@H]1CC[C@@]2(C)[C@@H](CC[C@@H]3[C@@H]2CC(=O)[C@@]2(C)[C@H]3C[C@@H]3CC(C)=CC(=O)[C@@H]32)C1`, for which the TGI in [1], in test [2], in test [3], in test [4], in [5] and in [6] was above 100 µM in each case. The TGI was above 100 µM in test [7], above 100 µM in test [8], 73.8 µM in test [9] and above 100 µM in test [10].

With `Cc1nc(N(C)C)nc(-c2cccc(-c3ccn(CCN(C)C)n3)c2)c1C`, the GI50 in test [1], in test [2], in [3], in test [4], in test [5] and in test [6] was above 20 µM in each case. The GI50 in test [7] was above 20 µM; in test [8], 15.9 µM; in test [9], 4.04 µM; in test [10], above 20 µM. In addition, the TGI in [1], in test [2], in test [3], in test [4], in test [5] and in test [6] was above 20 µM each time. The TGI in [7], in test [8], in [9] and in [10] was above 20 µM in each case.

As to `O=C1/C=C/[C@@H](O)[C@@H]2C[C@@H](O)C[C@H]2/C=C/CCCCO1`, the GI50 was 0.25 µM in test [1]; 0.857 µM in test [2]; 0.447 µM in [3]; 0.364 µM in [4]; 2.02 µM in test [5]; 0.298 µM in [6]. Also, the GI50 in test [7] was 0.475 µM; in test [8], 0.157 µM; in test [9], 0.17 µM; in [10] it was 0.416 µM. The TGI was 0.615 µM in test [1]; above 100 µM in [2]; 1.53 µM in test [3]; above 100 µM in test [5]; 1.31 µM in [6]; above 54.1 µM in test [7]. Further, the values for the TGI in test [8], in test [9] and in test [10] were 0.295 µM, above 100 µM and above 100 µM, respectively.

Regarding `COC(=O)c1cccc(COc2ccc([N+](=O)[O-])cc2Cl)c1`, the TGI in test [1], in test [2], in test [3], in [4], in test [5] and in test [6] was above 100 µM each time. For the same compound, the TGI in test [7], in [8], in test [9] and in [10] was above 100 µM throughout.

On to `c1ccc(Oc2cnc3ccccc3n2)cc1`, for which the GI50 in [1], in [2], in test [3], in test [4], in test [5] and in test [6] was above 100 µM each time. Besides, the GI50 in test [7] was above 100 µM; in test [8] it was 46.3 µM; in test [9], 33.8 µM; in test [10], 85.3 µM. In addition, the TGI in test [1], in [2], in test [3], in test [4], in test [5] and in test [6] was above 100 µM throughout. Further, the TGI in test [7], in test [8], in test [9] and in test [10] was above 100 µM each time.

Regarding `COc1cc(Nc2nccc(-c3cnn4ncccc34)n2)cc(OC)c1`, the GI50 is 0.0861 µM in test [1]; 0.0724 µM in test [2]; 0.0439 µM in test [3]; 0.0889 µM in test [4]; 0.115 µM in test [5]; 0.0751 µM in test [6]. Also, the GI50 in [7] is 0.0937 µM; in [8] it was 0.151 µM; in test [9], 0.0754 µM; in test [10], 0.0532 µM. For the same compound, the TGI in test [1] is above 17.6 µM; in test [2], 2.82 µM; in test [3], above 14.9 µM; in test [4], above 5.17 µM; in test [5], above 25 µM; in [6], above 11.9 µM. In addition, the TGI came out at 2.26 µM in test [7], 3.19 µM in test [8], 0.308 µM in test [9] and 0.223 µM in test [10].

Turning to `O=P1(NCCCl)OCCC(OO)N1CCCl` (stereo not drawn), the TGI was 99.7 µM in test [1]; above 100 µM in test [2]; 33.6 µM in [3]; 33.9 µM in test [4]; above 64 µM in test [5]; above 100 µM in [6]. Also, the TGI in test [7] was above 100 µM; in [8], above 100 µM; in test [9], 97 µM; in [10], 63.7 µM.

For the compound `Nc1nc(N)c(N=Nc2ccc([As](=O)(O)O)c(O)c2)c(N)n1`, the TGI in test [1] was above 100 µM; in [2], 38.1 µM; in test [3] it was above 33.7 µM; in test [4], above 100 µM; in test [5], above 100 µM; in test [6] it was above 100 µM. Also, the TGI in [7] is above 100 µM; in [8], above 100 µM; in test [9], above 89.5 µM; in test [10], above 100 µM.

`COc1ccc2c(C(=O)NCCCCCC(=O)O)cc3cc4c(cc3c2c1)OCO4`: the GI50 was above 100 µM in [1]; above 100 µM in test [2]; above 100 µM in test [3]; above 100 µM in test [4]; above 100 µM in test [5]; 99.5 µM in test [6]. The GI50 is above 100 µM in test [7], above 100 µM in test [8], 23.9 µM in [9] and 83 µM in test [10]. In addition, the TGI in test [1], in test [2], in test [3], in test [4], in test [5] and in [6] was above 100 µM each time. Also, the TGI in [7] is above 100 µM; in test [8] it was above 100 µM; in [9], 97.9 µM; in [10] it was above 100 µM.

Regarding `Cc1cc(=O)[nH]c2c1C(=O)C(=O)C=C2`, the GI50 in [1] is 18.7 µM; in test [2], 25 µM; in test [3], 18.2 µM; in test [4], 60.5 µM; in test [5], 34.3 µM; in test [6], 21.2 µM. The GI50 is 18.4 µM in test [7], 16.7 µM in test [8], 33.5 µM in [9] and 36.4 µM in [10]. For the same compound, the TGI in test [1] was 36.3 µM; in test [2] it was 53.9 µM; in test [3] it was 35.4 µM; in [4], above 100 µM; in [5], above 100 µM; in [6], 45.2 µM. The TGI was 40.7 µM in [7], 36.9 µM in [8], above 100 µM in test [9] and above 100 µM in [10].

With `O=C(/C=C/c1ccco1)c1cccc(Nc2nc(Nc3ccccc3)nc(Nc3ccccc3)n2)c1`, the GI50 in test [1] was 8.49 µM; in test [2] it was 14.5 µM; in test [3], 2.47 µM; in test [4], 5.12 µM; in test [6], 5.4 µM; in test [7], 36.3 µM. The GI50 in test [8] was 22 µM; in [9], 2.16 µM; in [10], 48.8 µM. Besides, the TGI was above 100 µM in test [1]; above 100 µM in test [2]; 35.3 µM in test [3]; above 100 µM in test [4]; above 56.1 µM in test [5]; above 100 µM in test [6]. For the same compound, the TGI is above 100 µM in test [7], above 100 µM in [8], above 69.5 µM in [9] and above 100 µM in test [10].

With `O=C1COCCN1c1ccc(NCc2cn(Cc3ccc(F)cc3)c3ccccc23)cc1`, the GI50 in test [1] was 2.7 µM; in test [2], 5.33 µM; in test [3], 0.0618 µM; in [4] it was 4.13 µM; in test [5], 1.25 µM; in [6] it was 4.9 µM. Further, the GI50 in [7] was 5.44 µM; in test [8], 2.6 µM; in test [9], 2.03 µM; in test [10], 0.0978 µM. Also, the TGI in [1] is 41 µM; in test [2], above 69.1 µM; in test [3], 14 µM; in test [4] it was 31 µM; in test [5] it was above 51.3 µM; in test [6] it was 27.5 µM. The TGI in test [7] is 45.3 µM; in test [8], 11.2 µM; in test [9] it was 13 µM; in [10], 0.617 µM.

Turning to `N=C(N)c1ccc(-c2ccc(-c3ccccc3)o2)o1`, the GI50 was 1.74 µM in test [1]; 3.3 µM in test [2]; 2.06 µM in test [3]; 1.16 µM in test [4]; 0.657 µM in test [5]; 2.04 µM in test [6]. The GI50 in test [7] was 2.82 µM; in test [8], 1.75 µM; in [9], 1.6 µM; in test [10], 1.93 µM. Also, the TGI was 3.54 µM in [1]; 11.6 µM in [2]; 5.29 µM in test [3]; 4.22 µM in test [4]; 3.18 µM in [5]; 4.9 µM in [6]. For the same compound, the TGI in test [7] is 11 µM; in [8], 3.19 µM; in [9] it was 4.12 µM; in test [10] it was 3.82 µM.

`COc1cccc(-c2nn(C)c3sc(C(=O)NCCN4CCN(c5ccccc5F)CC4)cc23)c1`: the GI50 in test [1] is 5.24 µM; in test [2], 34.2 µM; in test [3] it was 9.91 µM; in test [4] it was 3.18 µM; in test [5], 3.78 µM; in [6] it was 3.87 µM. Further, the GI50 is 13.8 µM in [7], 6.38 µM in test [8], 3.59 µM in [9] and 10.5 µM in test [10]. Moreover, the TGI in [1] was 25.1 µM; in test [2], above 100 µM; in [3] it was above 100 µM; in test [4], 15.5 µM; in [5] it was above 100 µM; in [6], 62.4 µM. Besides, the TGI in test [7] is above 100 µM; in test [8], 26.2 µM; in test [9], 95.3 µM; in [10] it was 84.5 µM.

Turning to `COc1ccc(/C=C/c2cnnc3ccccc23)cc1OC`, the TGI in test [1], in [2], in test [3], in test [4], in [5] and in [6] was above 10 µM in each case. Further, the TGI in [7], in test [8], in test [9] and in [10] was above 10 µM in each case.

As to `Nc1c(S(=O)(=O)O)cc2c(c1Cl)C(=O)c1ccccc1C2=O`, the GI50 in [1], in test [2], in test [3], in [4], in test [5] and in [6] was above 100 µM each time. In addition, the GI50 in [7], in [8], in test [9] and in test [10] was above 100 µM throughout. Moreover, the TGI in test [1], in test [2], in test [3], in test [4], in [5] and in [6] was above 100 µM throughout. In addition, the TGI in [7], in [8], in test [9] and in test [10] was above 100 µM throughout.

With `C=CCOc1ccc2c(c1)CC[C@@H]1[C@@H]2CC[C@]2(C)C(=O)/C(=N/O)C[C@@H]12`, the GI50 in test [1] was 4.77 µM; in test [2], 3.1 µM; in test [3], 2.04 µM; in test [4], 2.05 µM; in test [5] it was 2.88 µM; in [6], 1.85 µM. In addition, the GI50 in [7] is 6.92 µM; in [8], 11.6 µM; in [9] it was 0.335 µM; in [10], 14.6 µM. The TGI is 25.4 µM in test [1]; 15.6 µM in [2]; 6.82 µM in test [3]; 7.06 µM in [4]; 8.61 µM in test [5]; 5.09 µM in test [6]. Also, the TGI is above 52 µM in test [7], 25.7 µM in [8], 8.39 µM in test [9] and 32.5 µM in [10].

Source of the values: PubChem BioAssay (NCI).
